In PubChem BioAssay (NCI) one finds TGI and GI50 data, which are given here for eight molecules.

Where “and” joins values, the source holds several entries; their conditions need not be identical. Equal values may be shown once.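 Dose response: 5 concentrations. Exposure: 48 h. Format: 96-well plates. Endpoint: linear interpolation; highest concentration if not reached. GI50 is the concentration that inhibits growth by half. The concentration for full growth arrest is given as TGI.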 Where only a bound is given, the exact number is not on record here.

Some test systems named below: SK-MEL-28 melanoma; RPMI-8226 leukemia; MDA-MB-231 breast; SK-MEL-2 melanoma; T-47D breast; CCRF-CEM leukemia; CAKI-1 renal; A549 NSCLC; SN12C renal; MALME-3M melanoma.
Common to all, as to test: NCI tumour cell line growth inhibition, 48 h

Regarding `CN(C)c1ccc(/C=C(\C#N)c2ccccc2)cc1`, the TGI with SK-MEL-28 melanoma was greater than 100 µM; in the assay with MDA-MB-231 breast, 78.4 µM and 76.7 µM; in the assay with SK-MEL-2 melanoma, greater than 100 µM; with T-47D breast it was greater than 100 µM; with CCRF-CEM leukemia it was 13.4 µM and > 100 µM; in the assay on A549 NSCLC, greater than 100 µM. The TGI with SN12C renal and with MALME-3M melanoma was greater than 100 µM each time. The GI50 with RPMI-8226 leukemia is 288 nM and 648 nM; in the assay with MDA-MB-231 breast, 1660 nM and 1970 nM; with SK-MEL-2 melanoma, 453 nM and 465 nM; in the assay on T-47D breast, 446 nM and 534 nM and 473 nM; in the assay with CCRF-CEM leukemia, 332 nM and 553 nM and 595 nM; with CAKI-1 renal, 244 nM and 586 nM and 591 nM. Besides, the GI50 was 730 nM and 796 nM and 691 nM in the assay with A549 NSCLC; 553 nM and 788 nM and 764 nM in the assay on SN12C renal; 2580 nM and 18000 nM in the assay on MALME-3M melanoma.
Take `C[C@@H]1CC[C@H]2[C@@H](C)C(OC/C=C/COC3O[C@@H]4O[C@@]5(C)CC[C@H]6[C@H](C)CC[C@@H]([C@H]3C)[C@@]46OO5)O[C@@H]3O[C@@]4(C)CC[C@@H]1[C@]32OO4` (some centres not stated): the GI50 with SK-MEL-28 melanoma was 1320 nM; with RPMI-8226 leukemia, less than 10 nM; with MDA-MB-231 breast, less than 26.9 nM; in the assay on SK-MEL-2 melanoma, 773 nM; in the assay with T-47D breast, less than 10 nM; in the assay with CCRF-CEM leukemia, less than 10 nM. Besides, the GI50 in the assay on CAKI-1 renal was 46 nM; with A549 NSCLC it was less than 16.1 nM; with SN12C renal, less than 14.7 nM; in the assay with MALME-3M melanoma, 42.8 nM. The TGI in the assay on SK-MEL-28 melanoma was greater than 100 µM; in the assay on RPMI-8226 leukemia it was 5.77 µM; in the assay with MDA-MB-231 breast, 1.11 µM; in the assay on SK-MEL-2 melanoma, greater than 100 µM; in the assay with T-47D breast, greater than 100 µM; with CCRF-CEM leukemia it was greater than 50.6 µM. The TGI is 2.87 µM with CAKI-1 renal, greater than 68.3 µM in the assay with A549 NSCLC, 2.06 µM in the assay with SN12C renal and 61.5 µM in the assay on MALME-3M melanoma.
In the case of `CC(C)n1nc(C#Cc2cccc(O)c2)c2c(N)ncnc21`, the GI50 with SK-MEL-28 melanoma was 657 nM and 304 nM; in the assay with RPMI-8226 leukemia, 1130 nM and 516 nM; in the assay with MDA-MB-231 breast, 508 nM and 96.6 nM; in the assay with SK-MEL-2 melanoma it was 721 nM and 751 nM; in the assay on T-47D breast, 1010 nM and 864 nM; in the assay on CCRF-CEM leukemia it was 1650 nM and 1150 nM. Further, the GI50 with CAKI-1 renal is 1660 nM and 1590 nM; in the assay on A549 NSCLC it was 2620 nM and 3170 nM; in the assay with SN12C renal, 894 nM and 532 nM; in the assay with MALME-3M melanoma, 248 nM and 234 nM. The TGI in the assay on SK-MEL-28 melanoma is 2.73 µM and 2.36 µM; with RPMI-8226 leukemia, 5.78 µM and 6.19 µM; with MDA-MB-231 breast it was 2.07 µM and 2.15 µM; in the assay with SK-MEL-2 melanoma, 2.69 µM and 3.11 µM; with T-47D breast, 3.38 µM and 4.09 µM; in the assay on CCRF-CEM leukemia, 50 µM and 13.3 µM. Also, the TGI was 6.06 µM and 6.87 µM in the assay with CAKI-1 renal; 18.3 µM and 14.6 µM in the assay on A549 NSCLC; 5.09 µM and 4.76 µM in the assay with SN12C renal; 1.38 µM and 0.917 µM in the assay on MALME-3M melanoma.
For the molecule `COc1cc(-c2cc(-c3cccs3)c(C#N)c(N3CCOCC3)n2)cc(OC)c1OC`, the GI50 with SK-MEL-28 melanoma was 3830 nM; in the assay on RPMI-8226 leukemia it was 4070 nM; in the assay on MDA-MB-231 breast it was 5830 nM; in the assay with SK-MEL-2 melanoma it was 8460 nM; with T-47D breast, 3320 nM; with CCRF-CEM leukemia it was 5660 nM. The GI50 in the assay on CAKI-1 renal is greater than 21600 nM; in the assay on A549 NSCLC, 44100 nM; with SN12C renal, greater than 100000 nM; in the assay on MALME-3M melanoma it was 3660 nM. For the same molecule, the TGI with SK-MEL-28 melanoma is 97.2 µM; in the assay with RPMI-8226 leukemia, greater than 85.7 µM; with MDA-MB-231 breast, greater than 100 µM; in the assay on SK-MEL-2 melanoma it was greater than 100 µM; in the assay on T-47D breast it was greater than 85.3 µM; in the assay with CCRF-CEM leukemia, greater than 100 µM. Besides, the TGI in the assay with CAKI-1 renal, in the assay with A549 NSCLC, in the assay on SN12C renal and in the assay on MALME-3M melanoma was greater than 100 µM in each case.
With `CC1NC(C(=O)O)Cc2cc(O)c(O)cc21` (configuration not stated), the TGI in the assay on SK-MEL-28 melanoma, in the assay on RPMI-8226 leukemia, in the assay with MDA-MB-231 breast, in the assay with SK-MEL-2 melanoma, with T-47D breast and with CCRF-CEM leukemia was greater than 100 µM throughout. Besides, the TGI with CAKI-1 renal, with A549 NSCLC, in the assay on SN12C renal and in the assay with MALME-3M melanoma was greater than 100 µM in each case.
For `C[C@]12CCCN1CC1=NNC(=O)c3cc(F)cc4[nH]c2c1c34`, the GI50 was 24900 nM with SK-MEL-28 melanoma; 19100 nM with RPMI-8226 leukemia; 18000 nM in the assay on MDA-MB-231 breast; 22300 nM in the assay with SK-MEL-2 melanoma; 20600 nM in the assay on T-47D breast; 22500 nM with CCRF-CEM leukemia. Further, the GI50 was 7730 nM in the assay on CAKI-1 renal, 22400 nM in the assay with A549 NSCLC, 14300 nM with SN12C renal and 28900 nM in the assay on MALME-3M melanoma. Besides, the TGI with SK-MEL-28 melanoma was determined as 87.2 µM; with RPMI-8226 leukemia, 52.3 µM; with MDA-MB-231 breast, 66.5 µM; in the assay on SK-MEL-2 melanoma it was 52.4 µM; in the assay on T-47D breast it was 91.9 µM; with CCRF-CEM leukemia, 81 µM. Moreover, the TGI in the assay with CAKI-1 renal was greater than 100 µM; with A549 NSCLC, greater than 100 µM; in the assay with SN12C renal it was 79.1 µM; in the assay with MALME-3M melanoma, 70.5 µM.
In the case of `COc1ccc(N=N/C(=N\NC(=O)c2cc(Br)ccc2O)c2ccc(N(CCC#N)CCC#N)cc2OC)cc1`, the GI50 with SK-MEL-28 melanoma was greater than 150 µg/mL; with RPMI-8226 leukemia it was 74.4 µg/mL; in the assay with MDA-MB-231 breast, 70.8 µg/mL; with SK-MEL-2 melanoma, 95.8 µg/mL; in the assay on T-47D breast it was 72.5 µg/mL; in the assay with CCRF-CEM leukemia it was 57.1 µg/mL. Moreover, the GI50 is 53.3 µg/mL in the assay on CAKI-1 renal, 77.1 µg/mL in the assay on A549 NSCLC, 77.6 µg/mL in the assay on SN12C renal and 68.2 µg/mL in the assay with MALME-3M melanoma. Besides, the TGI in the assay on SK-MEL-28 melanoma, with RPMI-8226 leukemia, in the assay with MDA-MB-231 breast, in the assay on SK-MEL-2 melanoma, in the assay on T-47D breast and with CCRF-CEM leukemia was greater than 150 µg/mL throughout. Further, the TGI with CAKI-1 renal, in the assay on A549 NSCLC, in the assay with SN12C renal and in the assay with MALME-3M melanoma was greater than 150 µg/mL in each case.
As to `O=c1c2cccc(F)c2sc2c(NCCCNCCO)nc3ccccc3c12`, the GI50 with SK-MEL-28 melanoma is 1860 nM; in the assay with RPMI-8226 leukemia, 1760 nM; with MDA-MB-231 breast, 1260 nM; in the assay on SK-MEL-2 melanoma, 1970 nM; with T-47D breast, 1760 nM; in the assay on CCRF-CEM leukemia it was 1410 nM. Further, the GI50 was 1420 nM with CAKI-1 renal, 1130 nM in the assay on A549 NSCLC, 1440 nM in the assay on SN12C renal and 1610 nM in the assay on MALME-3M melanoma. The TGI came to 3.31 µM in the assay with SK-MEL-28 melanoma; 3.99 µM in the assay with RPMI-8226 leukemia; 2.65 µM with MDA-MB-231 breast; 3.95 µM in the assay with SK-MEL-2 melanoma; 4.1 µM in the assay with T-47D breast; 3.87 µM in the assay with CCRF-CEM leukemia. For the same molecule, the TGI in the assay on CAKI-1 renal was 2.73 µM; with A549 NSCLC, 3.08 µM; with SN12C renal, 2.9 µM; with MALME-3M melanoma, 3.12 µM.
